Measured values: patent US9982265B2, “Inhibition of Bruton's tyrosine kinase (Btk) in the lung to treat severe lung inflammation and lung injury” (BOARD OF REGENTS, THE UNIVERSITY OF TEXAS SYSTEM, priority 2014, dated 2018)

Legend:
[1] = tested on: mice with anti-KC:KC IC ALI; test: anti-KC:KC IC model of ALI, Lung Injury Score; format: in vivo; settings: Table 4; mice immunized with KC then given KC; score 0 to 2; means ± SD, 3 animals per group
Description: Anti-KC:KC immune complexes were prepared according to the protocol routinely used in our laboratory (28). Some mice received Btk specific siRNA intranasally. In other experiments the animals were treated i.n. with siRNA specific for Btk (see SEQ ID NOs:18-25) or MMP-9 (Invitrogen), both conjugated (T3™-MAX Conjugation Kit (Bioo Scientific Corporation, Austin, Tex.) to F(ab′)2 fragments of anti-mouse neutrophil antibody Ly-6G1A8). F(ab′)2 fragments alone or conjugated to control siRNA (SEQ ID NO's 26 and 27) (Invitrogen) served as controls of the treatment. Two or fourteen hours after i.n. administration of either immune complexes or saline, the animals were euthanized and samples collected for further evaluation. To study role of neutrophil FcγRIII receptors neutrophils were first depleted by i.p. injection of vinblastine (31) followed by adoptive transfer of cells deficient in FcγRIII receptors prepared as described below. […] Lung dysfunction was assessed by analysis of pulmonary histopathology.
Pulmonary Histopathology: Lungs were fixed in ExCellPlus (AMTS, Lodi, Calif.), embedded in paraffin, and sectioned at 5 μm. […] The images of stained sections were evaluated for the presence of alveolar exudate, infiltration of inflammatory cells, and interstitial thickening. Lung Injury Score (LIS) was assessed as described earlier (28). Most images were assessed at magnification of over 400×. […] At the minimum twenty sections from each group of mice were evaluated and 4 investigators participated in the analysis of 50 or more fields per group. According to recommendation of “An Official American Thoracic Society Workshop Report: Features and Measurements of Experimental Acute Lung Injury in Animals” (Am J Respir Cell Mol Biol 44 725-738, 2011) more than 20 high power fields were independently scored (as described above) and at least 50% of each field was occupied by lung alveoli. […]

[2] = tested on: ApoE−/− mice fed Western Diet and exposed to SHS; test: Second hand smoke-induced emphysema/COPD model, PicroSirius Red and Hart's Elastin lung staining; format: in vivo; settings: i.v. twice a week for 4 weeks, FIG. 18, 19
From the text: Second Hand Smoke (SHS)-Induced COPD: Chronic exposure of mice to SHS induces abnormal pulmonary inflammation, airway remodeling and airspace enlargement due to destruction of alveolar walls which are characteristic of COPD (Pappas et al., supra). The present studies used both wild-type (WT) mice exposed to SHS and apolipoprotein E-(ApoE^−/−)-genetically deficient mice to study comorbidities of COPD. The targeted deletion of the apoE gene leads to severe hypercholesterolemia and spontaneous atherosclerosis. Lesions of ApoE^−/− mice resemble their human counterparts and develop over time from initial fatty streaks to complex lesions. (A high-fat, high-cholesterol diet can strongly accelerate the process.) Exposure of ApoE^−/− mice to SHS triggers characteristic decline of lung function that is seen in patients with COPD (Arunachalam, G. et al., supra). ApoE^−/− mice were fed a regular diet (control) and a high fat/cholesterol (1%) diet to shorten the time required for the development of atherosclerosis.
WT and ApoE^−/− diet groups were divided into equal subgroups: control and SHS. SHS groups were exposed to cigarette smoke for 4 h per day, 5 days a week, for up to 20 weeks. A Teague TE-10 microprocessor-controlled smoking machine was used to produce side stream mixed with a smaller amount of main stream smoke. […] TSP values were measured twice a week or as necessary. […]

| SMILES | Lung Injury Score: Edema fluid [1] | Lung Injury Score: Inflammatory infiltration [1] | Lung Injury Score: Thickening of alveolar septa [1] | effect on symptoms of emphysema/COPD [2] |
| --- | --- | --- | --- | --- |
| CC[C@]1(O)C[C@@H]2CN(CCc3c([nH]c4ccccc34)[C@@](C(=O)OC)(c3cc4c(cc3OC)N(C)[C@H]3[C@@](O)(C(=O)OC)[C@H](OC(C)=O)[C@]5(CC)C=CCN6CC[C@]43[C@@H]65)C2)C1 [vinblastine] | 0.033 ± 0.029 | 0.167 ± 0.029 | 0.133 ± 0.153 | – |
| C=CC(=O)N1CCC[C@@H](n2nc(-c3ccc(Oc4ccccc4)cc3)c3c(N)ncnc32)C1 [PCI-32765, 1-[(3R)-3-[4-amino-3-(4-phenoxyphenyl)-pyrazolo[3,4-d]pyrimidin-1-yl]piperidin-1-yl]prop-2-en-1-one] | – | – | – | dramatic protective effect |
